Alpha-2A receptor activity data for one compound are collected here from patent publication US20110160265A1, “METHOD OF TREATING MOTOR DISORDERS WITH ALPHA-2B ADRENERGIC RECEPTOR AGONISTS” (priority 2007, published 2011).

This test addresses T1, alpha-2A receptor (Homo sapiens, UniProt P08913).
T1 sequence (P08913 1-465): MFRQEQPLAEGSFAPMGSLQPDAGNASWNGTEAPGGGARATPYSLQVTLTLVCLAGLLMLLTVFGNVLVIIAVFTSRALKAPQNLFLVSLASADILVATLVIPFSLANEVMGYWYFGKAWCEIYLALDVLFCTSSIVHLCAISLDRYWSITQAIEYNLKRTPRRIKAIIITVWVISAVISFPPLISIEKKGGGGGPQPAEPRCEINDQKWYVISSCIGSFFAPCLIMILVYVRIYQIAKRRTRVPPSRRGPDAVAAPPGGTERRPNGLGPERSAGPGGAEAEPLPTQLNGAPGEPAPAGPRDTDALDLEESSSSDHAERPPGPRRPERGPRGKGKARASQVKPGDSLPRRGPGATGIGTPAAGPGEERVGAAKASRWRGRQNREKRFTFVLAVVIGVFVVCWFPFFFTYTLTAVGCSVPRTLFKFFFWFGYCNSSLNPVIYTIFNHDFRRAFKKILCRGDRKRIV
Nature of the test: Alpha-2A receptor activity (efficacy relative to brimonidine). Conditions: in words; b7: lacks significant activity = less than 40% of the efficacy of brimonidine at alpha-2A. It counts as cell-based. The text has this:
The methods of the present invention use alpha-2 agonists lacking significant activity at the alpha-2A receptor subtype. An agonist lacks significant alpha-2A receptor activity if the agonist has less than 40% of the efficacy of brimonidine at the alpha-2A receptor subtype. Compounds of the invention include, therefore, alpha-2B receptor agonists lacking significant alpha-2A activity; alpha 2B/2C receptor agonists lacking significant alpha-2A activity; and alpha-2C receptor agonists lacking significant alpha-2A activity.
Efficacy, also known as intrinsic activity, is a measure of maximal receptor activation achieved by a compound and can be determined using any accepted assay of alpha-adrenergic receptor activation, such as a cAMP or Receptor Selection and Amplification Technology (RSAT). Efficacy is represented as a ratio or percentage of the maximal effect of the drug to the maximal effect of a standard agonist for each receptor subtype. Brimonidine, itself an alpha-2B receptor agonist (it is has 100% the efficacy of brimonidine at the alpha-2B adrenergic receptor), is used as the standard agonist for the alpha-2B adrenergic receptors.
Agonist activity can be characterized using any of a variety of routine assays, including, for example, Receptor Selection and Amplification Technology (RSAT) assays (Messier et al., Pharmacol. Toxicol. 76:308-11 (1995); cyclic AMP assays (Shimizu et al., J. Neurochem. 16:1609-1619 (1969)); and cytosensor microphysiometry assays (Neve et al., J. Biol. Chem. 267:25748-25753 (1992)). Such assays generally are performed using cells that naturally express only a single alpha-adrenergic receptor subtype, or using transfected cells expressing a single recombinant alpha-adrenergic receptor subtype. The adrenergic receptor can be a human receptor or homolog of a human receptor having a similar pharmacology.
The RSAT assay measures receptor-mediated loss of contact inhibition resulting in selective proliferation of receptor-containing cells in a mixed population of confluent cells. The increase in cell number is assessed with an appropriate detectable marker gene such as beta-galactosidase, if desired, in a high throughput or ultra high throughput assay format. Receptors that activate the G protein, Gq, elicit the proliferative response. Alpha-adrenergic receptors, which normally couple to Gi, activate the RSAT response when coexpressed with a hybrid Gq protein containing a Gi receptor recognition domain, designated Gq/i5. Conklin et al., Nature 363:274-6 (1993)).
As an example, an RSAT assay can be performed essentially as follows. NIH-3T3 cells are plated at a density of 2×10^6 cells in 15 cm dishes and maintained in Dulbecco's modified Eagle's medium supplemented with 10% calf serum. One day later, cells are cotransfected by calcium phosphate precipitation with mammalian expression plasmids encoding p-SV-β-galactosidase (5-10 μg), receptor (1-2 μg) and G protein (1-2 μg). Carrier DNA, for example 40 μg salmon sperm DNA, also can be included to increase transfection efficiency. Fresh media is added on the following day; one to two days later, cells are harvested and frozen in 50 assay aliquots. Transfected cells are thawed, and 100 μl of cells added to 100 μl aliquots of compound to be tested, with various concentrations assayed in triplicate, for example, in 96-well plates. Incubation continues for 72 to 96 hours at 37° C. After washing with phosphate-buffered saline, β-galactosidase activity is determined by adding 200 μl of chromogenic substrate (3.5 mM O-nitrophenyl-β-D-galactopyranoside/0.5% NP-40 in phosphate buffered saline), incubating overnight at 30° C., and measuring optical density at 420 nm. The absorbancy is a measure of enzyme activity, which depends on cell number and reflects receptor-mediated cell proliferation. The EC50 and maximal effect (i.e., efficacy) of each drug at each receptor is determined.

On to `O=C1c2ccccc2CC[C@H]1Cc1c[nH]c(=S)[nH]1` [Compound E], for which the alpha-2A receptor activity entry is given as “lack significant alpha-2A receptor activity”.
